Laboratory results reported in patent US20170037028A1 (BAYER PHARMA AKTIENGESELLSCHAFT, priority 2013, published 2017).

These compounds were tested against T1, GLUT1 (Homo sapiens, UniProt P11166) (assay: Indirect measurement of GLUT1 activity by quantification of intracellular ATP levels (glucose induced ATP increase)). Conditions: DLD1 cells; 0.1 mM glucose, 1 μM Rotenone, 15 min; CellTiter-Glo ATP readout; IC50 values standardized to cytochalasin B IC50 values; read-out: IC50 regarding glucose induced ATP increase (GLUT1 inhibition).
T1 sequence (P11166 1-492): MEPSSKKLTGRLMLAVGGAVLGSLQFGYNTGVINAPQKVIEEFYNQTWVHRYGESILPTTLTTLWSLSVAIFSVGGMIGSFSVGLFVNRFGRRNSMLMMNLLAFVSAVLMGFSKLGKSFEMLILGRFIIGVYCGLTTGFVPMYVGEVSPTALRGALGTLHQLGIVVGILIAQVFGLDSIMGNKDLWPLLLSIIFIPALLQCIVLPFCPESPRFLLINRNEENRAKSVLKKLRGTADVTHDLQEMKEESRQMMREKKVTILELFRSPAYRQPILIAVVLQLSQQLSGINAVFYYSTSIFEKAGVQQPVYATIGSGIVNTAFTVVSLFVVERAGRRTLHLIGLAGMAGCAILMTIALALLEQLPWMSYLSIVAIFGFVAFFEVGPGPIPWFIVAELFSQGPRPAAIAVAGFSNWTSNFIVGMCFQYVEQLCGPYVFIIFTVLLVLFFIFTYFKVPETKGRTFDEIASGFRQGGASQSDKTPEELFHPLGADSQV
Assay type: cell-based
Design: endogenous in cells; host or cells: DLD1 or CHO-K1
Procedure, shortened: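 Intracellular ATP was measured by CellTiter-Glo luminescence as an indirect readout of transport: glucose-driven for GLUT1, fructose-driven for GLUT2. DLD1 or CHO-K1 cells were used alongside an oxidative phosphorylation inhibitor. Beforehand, cells were held overnight in glucose-free 1% FCS medium to deplete ATP.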

Compound | IC50 [µM]
Cc1c(NC(=O)c2cc(C(N)=O)nc3cc(F)ccc23)c(C(F)(F)F)nn1Cc1cc(C#N)no1 [Example 1669] | 0.0888

Same assay, conditions: read-out: IC50 regarding glucose induced ATP increase (GLUT1 inhibition)

IC50 [µM] | Compound
0.519 | Cc1nn(Cc2cccc(F)c2)c(C)c1NC(=O)c1cc(C(F)(F)F)nc2c(Cl)cc(Cl)cc12 [Example 104, 6,8-dichloro-N-[1-(3-fluorobenzyl)-3,5-dimethyl-1H-pyrazol-4-yl]-2-(trifluoromethyl)quinoline-4-carboxamide]
0.0187 | CC(=O)c1cccc(Cn2nc(C)c(NC(=O)c3cc(C(N)=O)nc4cccc(F)c34)c2C)c1 [Example 1624]
0.0122 | COc1cc(C(=O)Nc2c(C)nn(Cc3ccc(F)cc3F)c2C)c2ccccc2n1 [Example 17, N-[1-(2,4-difluorobenzyl)-3,5-dimethyl-1H-pyrazol-4-yl]-2-methoxyquinoline-4-carboxamide]
0.0613 | Cc1c(NC(=O)c2cc(C(N)=O)nc3cc(F)c(Cl)cc23)c(C(F)(F)F)nn1Cc1cccc(S(C)(=O)=O)c1 [Example 1638]
0.0066 | Cc1nn(Cc2ccc(C#N)cc2)c(C)c1NC(=O)c1cc(C(F)(F)F)nc2c(Cl)cc(Cl)cc12 [Example 11, 6,8-dichloro-N-[1-(4-cyanobenzyl)-3,5-dimethyl-1H-pyrazol-4-yl]-2-(trifluoromethyl)quinoline-4-carboxamide]
2.38 | Cc1nc2ccccc2c(C(=O)Nc2c(C)nn(Cc3ccc(F)cc3)c2C)c1C#N [Example 1264]
0.0176 | Cc1cccc2nc(C(N)=O)cc(C(=O)Nc3c(C(F)(F)F)nn(Cc4ccc(C#N)cc4)c3C)c12 [Example 244, N^4-[1-(4-cyanobenzyl)-5-methyl-3-(trifluoromethyl)-1H-pyrazol-4-yl]-5-methylquinoline-2,4-dicarboxamide]
0.0107 | COCCNC(=O)c1ccc(Cn2nc(C)c(NC(=O)c3cc(C(F)(F)F)nc4ccc(Br)cc34)c2C)cc1 [Example 137, 6-bromo-N-(1-{4-[(2-methoxyethyl)carbamoyl]benzyl}-3,5-dimethyl-1H-pyrazol-4-yl)-2-(trifluoromethyl)quinoline-4-carboxamide]
0.0201 | CCc1nc(Cn2nc(C)c(NC(=O)c3cc(C(N)=O)nc4ccccc34)c2C)no1 [Example 1500]
0.0154 | COc1cc(C(=O)Nc2c(C)nn(Cc3ccc(OC(F)(F)F)cc3)c2C)c2ccccc2n1 [Example 23, N-{3,5-dimethyl-1-[4-(trifluoromethoxy)benzyl]-1H-pyrazol-4-yl}-2-methoxyquinoline-4-carboxamide]
0.0937 | Cc1nn(Cc2ccc(Cl)s2)c(C)c1NC(=O)c1cc(C(F)(F)F)nc2ccc(Br)cc12 [Example 180, 6-bromo-N-{1-[(5-chlorothiophen-2-yl)methyl]-3,5-dimethyl-1H-pyrazol-4-yl}-2-(trifluoromethyl)quinoline-4-carboxamide]
1.1 | Cc1nn(Cc2ccc(S(C)(=N)=O)cc2)c(C)c1NC(=O)c1cc(C(N)=O)nc2ccccc12 (racemic) [Example 377]
0.0195 | Cc1nn(Cc2ccc(F)cc2)c(C)c1NC(=O)c1cc(C(F)(F)F)nc2ccc(F)cc12 [Example 30, 6-fluoro-N-[1-(4-fluorobenzyl)-3,5-dimethyl-1H-pyrazol-4-yl]-2-(trifluoromethyl)quinoline-4-carboxamide]
11.1 | COc1cc(C(=O)Nc2c(C)nn(Cc3cccc(C(F)(F)F)c3)c2C)c2ccccc2n1 [Example 1303]
0.0308 | Cc1nn(Cc2ccc(C(=O)NCCOc3ccccc3F)cc2)c(C)c1NC(=O)c1cc(C(F)(F)F)nc2ccc(Br)cc12 [Example 1084]
0.0079 | Cc1nn(Cc2ccc(F)cc2)c(C)c1NC(=O)c1cc(C2CCC2)nc2ccc(Br)cc12 [Example 146, 6-bromo-2-cyclobutyl-N-[1-(4-fluorobenzyl)-3,5-dimethyl-1H-pyrazol-4-yl]quinoline-4-carboxamide]
0.0058 | Cc1nn(Cc2ccc(S(C)(=O)=O)cc2)c(C)c1NC(=O)c1cc(C(N)=O)nc2cc(F)c(F)cc12 [Example 231, N^4-{3,5-dimethyl-1-[4-(methylsulfonyl)benzyl]-1H-pyrazol-4-yl}-6,7-difluoroquinoline-2,4-dicarboxamide]
0.213 | Cc1nn(Cc2nc(C3CC3)no2)c(C)c1NC(=O)c1cc(C(F)(F)F)nc2ccc(Br)cc12 [Example 1502]
0.0029 | Cc1nn(Cc2ccc(OC(F)(F)F)cc2)c(C)c1NC(=O)c1cc(C(N)=O)nc2cccc(F)c12 [Example 1462]
0.0522 | Cc1nn(Cc2ccc(C(=O)NCCCC(C)(C)CO)cc2)c(C)c1NC(=O)c1cc(C(F)(F)F)nc2ccc(Br)cc12 [Example 1107]

IC50 [µM] | Compound
0.0444 | Cc1nn(Cc2ccc(F)c(F)c2)c(C)c1NC(=O)c1cc(C(F)(F)F)nc2ccc(Br)cc12 [Example 47, 6-bromo-N-[1-(3,4-difluorobenzyl)-3,5-dimethyl-1H-pyrazol-4-yl]-2-(trifluoromethyl)quinoline-4-carboxamide]
0.275 | Cc1c(NC(=O)c2cc(C(N)=O)nc3ccccc23)c(C(F)(F)F)nn1Cc1ncco1 [Example 1540]
0.6 | Cc1nn(Cc2noc(C(=O)N(C)C)n2)c(C)c1NC(=O)c1cc(C(F)(F)F)nc2ccc(Br)cc12 [Example 1522]
0.021 | Cc1c(NC(=O)c2cc(C(N)=O)nc3cccc(O)c23)c(C(F)(F)F)nn1Cc1ccc(C#N)cc1 [Example 1565]
0.0711 | Cc1nn(Cc2ccc(C(=O)NCC3CC3(F)F)cc2)c(C)c1NC(=O)c1cc(C(F)(F)F)nc2ccc(Br)cc12 (stereo not drawn) [Example 1123]
1.29 | Cc1ccc2nc(C)cc(C(=O)Nc3c(C)nn(Cc4cccc(F)c4)c3C)c2c1 [Example 1236]
0.0604 | Cc1nn(Cc2ccc(OC(F)(F)F)cc2)c(C)c1NC(=O)c1cc(C(F)(F)F)nc2ccc(Br)cc12 [Example 56, 6-bromo-N-{3,5-dimethyl-1-[4-(trifluoromethoxy)benzyl]-1H-pyrazol-4-yl}-2-(trifluoromethyl)quinoline-4-carboxamide]
2.61 | Cc1c(NC(=O)c2cc(C(=O)NCCN(C)C)nc3cc(F)ccc23)c(C(F)(F)F)nn1Cc1ccc(C#N)cc1 [Example 1400]
0.0791 | CCc1noc(Cn2nc(C(F)(F)F)c(NC(=O)c3cc(C(N)=O)nc4ccccc34)c2C)n1 [Example 1536]
0.185 | CCc1nn(Cc2ccc(C#N)cc2)c(CC)c1NC(=O)c1cc(C(N)=O)nc2cc(Cl)ccc12 [Example 313, 7-chloro-N^4-[1-(4-cyanobenzyl)-3,5-diethyl-1H-pyrazol-4-yl]quinoline-2,4-dicarboxamide]
0.0398 | Cc1cc(Cn2nc(C)c(NC(=O)c3cc(C(N)=O)nc4ccccc34)c2C)on1 [Example 1560]
0.0013 | COc1ccc(Cn2nc(C)c(NC(=O)c3cc(C(N)=O)nc4c(F)cc(Cl)cc34)c2C)cc1 [Example 276, 6-chloro-8-fluoro-N^4-[1-(4-methoxybenzyl)-3,5-dimethyl-1H-pyrazol-4-yl]quinoline-2,4-dicarboxamide]
0.0818 | Cc1c(NC(=O)c2cc(C(N)=O)nc3cc(F)c(Cl)cc23)c(C(F)(F)F)nn1Cc1cc(CN2CCOCC2)on1 [Example 1676]
0.0033 | Cc1c(NC(=O)c2cc(C(N)=O)nc3ccccc23)c(C(F)(F)F)nn1Cc1ccc(F)c(F)c1 [Example 128, N^4-[1-(3,4-difluorobenzyl)-5-methyl-3-(trifluoromethyl)-1H-pyrazol-4-yl]quinoline-2,4-dicarboxamide]
0.0039 | Cc1nn(Cc2ccc(C#N)cc2)c(C)c1NC(=O)c1cc(C(N)=O)nc2c(F)cccc12 [Example 263, N^4-[1-(4-cyanobenzyl)-3,5-dimethyl-1H-pyrazol-4-yl]-8-fluoroquinoline-2,4-dicarboxamide]
2.06 | CNC(=O)c1c(NC(=O)c2cc(C(N)=O)nc3ccccc23)c(C)nn1Cc1ccc(F)cc1 [Example 1258]
0.225 | Cc1nn(Cc2ccc(F)cc2)c(C)c1NC(=O)c1cc(C2CC2)nc2ccc(C(F)(F)F)cc12 [Example 79, 2-cyclopropyl-N-[1-(4-fluorobenzyl)-3,5-dimethyl-1H-pyrazol-4-yl]-6-(trifluoromethyl)quinoline-4-carboxamide]
0.002 | Cc1c(NC(=O)c2cc(C(N)=O)nc3ccc(Br)cc23)c(C(F)(F)F)nn1Cc1ccc(F)cc1F [Example 1442]
0.0057 | Cc1nn(Cc2ccc(F)c(F)c2)c(C)c1NC(=O)c1cc(C2CCC2)nc2ccc(Br)cc12 [Example 144, 6-bromo-2-cyclobutyl-N-[1-(3,4-difluorobenzyl)-3,5-dimethyl-1H-pyrazol-4-yl]quinoline-4-carboxamide]
0.0042 | Cc1nn(Cc2cc(C3CC3)on2)c(C)c1NC(=O)c1cc(C(N)=O)nc2ccccc12 [Example 419, N^4-{1-[(5-cyclopropyl-1,2-oxazol-3-yl)methyl]-3,5-dimethyl-1H-pyrazol-4-yl}quinoline-2,4-dicarboxamide]

Compound | IC50 [µM]
Cc1c(NC(=O)c2cc(C(N)=O)nc3c(Cl)cccc23)c(C(F)(F)F)nn1Cc1ccc(C#N)cc1 [Example 338, 8-chloro-N^4-[1-(4-cyanobenzyl)-5-methyl-3-(trifluoromethyl)-1H-pyrazol-4-yl]quinoline-2,4-dicarboxamide] | 0.0027
